A melting point compilation (Tetko et al.; mined from patent text by program, amines drawn as free bases though some values may be those of a salt)

melting point [°C]	SMILES
130 to 133	CCC(=O)C1OC(O)C(O)C1OCc1ccccc1Cl (stereo unspecified)
164 to 166	O=C(O)C(O)c1ccc2ccccc2c1 (racemic)
185	CNC(=O)c1ccc(NC(=O)OC(C)(C)C)cc1
120 to 123	COC(=O)c1c(Cl)cc(Cl)cc1NC(=O)CSc1ccc(NS(=O)(=O)c2ccc(Cl)cc2)cc1
157 to 159	COC(=O)CSc1nc(Sc2ccc(Cl)cc2)ncc1[N+](=O)[O-]
255 to 258	Cc1nnc2ccc(-c3cccc(NC(=O)C4CC4)c3)nn12
210 to 211	O=C(O)C1CCc2c(c3ccccc3n2C(=O)c2ccc(Cl)cc2)C1 (stereo unspecified)
137 to 138	CC(=NO)C(=O)c1ccc(OCc2cccc(C(F)(F)F)c2)cc1
132 to 134	CC(C)(C)OC(=O)Nc1cc(OCC2COC(C)(C)O2)c(C#Cc2ccccc2)cc1NC(=O)CC(=O)c1cccc(C#N)c1 (stereo unspecified)
119 to 120	Cc1cccc(C)c1NC(=O)N=C1CCCN1C
64 to 67	CC(=O)N(CC(C)O)c1c(C)cccc1C (stereo unspecified)
118 to 120	CC(O)c1ccc(-c2ccc(S(C)(=O)=O)cc2)o1 (stereo unspecified)
49 to 50	COC(=O)COc1ccc(C(C)=O)c(C)c1
165 to 166	Cc1cc([N+](=O)[O-])ccc1NC(=O)n1nc(Oc2cccc(C(F)(F)F)c2)cc1C
118 to 120	COC(=O)CCCCCOc1ccc(NC(=O)OCCOC(=O)Nc2ccc(OCCCCCC(=O)OC)cc2)cc1
150	CC(OCc1cc2nc(Cl)ccc2n1S(=O)(=O)c1ccccc1)C(=O)O (stereo unspecified)

melting point [°C]	SMILES
66 to 67	COc1ccc(Cl)cc1C(=O)NCCOc1ccc(CC2SC(=O)NC2=O)cc1 (stereo unspecified)
106 to 108	CCc1ccc(SC(=NNc2ccc(OC)cc2)C(C)=O)cc1
74.6 to 75.6	COC(=O)C(Cc1ccc(OCCc2nc(-c3ccccc3)oc2C)cc1)C(=O)NC(N)=O (stereo unspecified)
209 to 210	Cc1c(C)c2c(c(C)c1NC(=O)CC(C)(C)C)OC(C)(C)C2Cc1ccccc1 (stereo unspecified)
180 to 181	COc1ccc(C=N[C@H]2C(OC(C)=O)O[C@H](COC(C)=O)[C@@H](OC(C)=O)[C@@H]2OC(C)=O)cc1 (stereo partly specified)
82	CC1CCN(c2ccccc2C(=O)c2ccccc2)CC1
144 to 146	COC(=O)c1ccc(-c2ncccc2S(=O)(=O)Nc2ncc(C)nc2OC)cc1
93 to 94	CCOC(=O)/C(=C\Nc1cc(C)cc(C)c1)c1ccc(OC)cc1
81 to 88	CSCC[C@H](NC(=O)OCc1ccccc1)C(=O)[C@@H](C(N)c1ccccc1)[C@H](O)C(=O)N1C[C@@H](Cl)C[C@H]1C(=O)NC(C)(C)C (stereo partly specified)
196 to 198	COC(=O)C1CC2=C(CO1)C(=O)c1cc3ccccc3c(OC(C)=O)c1C2=O (stereo unspecified)
241 to 243	O=C(CBr)Nc1ccc(C(=O)O)cc1
54 to 55	CCOC(=O)C(NC(C)=O)C(=O)CCCCc1ccccc1 (stereo unspecified)
129	CCCCNC(=O)NS(=O)(=O)c1cc(Cl)ccc1C(=O)OC(C)C
48.5 to 50	CC(=O)OCc1cccc(-c2ccco2)c1C
165 to 166	CC(C)(C)OC(=O)[C@H](COC(=O)N(N)c1ccc(CC(=O)O)cc1)C(=O)OC(c1ccccc1)c1ccccc1

Continued, compound first:

SMILES	melting point [°C]
CC1Cc2cc3c(cc2C(c2ccc([N+](=O)[O-])cc2)=NN1C(=O)NCCCl)OCO3 (stereo unspecified)	222 to 223
Cc1cc(Oc2ncc(C(F)(F)F)cc2Cl)n[nH]1	93 to 95
CC(CCC=CC(=O)O)C1CCC2C3CCC4CC(O)CCC4(C)C3CC(O)C12C (stereo unspecified)	204 to 208
CC1C(=O)N(c2cccc(F)c2)C(=S)N1c1ccc(Oc2ccccc2)cc1 (stereo unspecified)	116
COc1cc(OC)c2cc(-c3ccccc3)c(=O)[nH]c2c1	257 to 258
COc1cccc2c1CCN(c1nc(C)[nH]c(=O)c1[N+](=O)[O-])CC2	> 200
Cc1cccc(C)c1NC(=O)CN1CCN(CCC(c2ccc(F)cc2)c2ccc(F)cc2)C(C(N)=O)C1 (stereo unspecified)	143
CC(C)(C)C(=O)OC1CCC2C3(O)C=CC4=CC(=O)CCC4(CO)C3CCC12C (stereo unspecified)	201 to 203
Nc1ccc(Cc2ccc(CS(=O)(=O)NCc3ccccc3)cc2)cc1	115 to 118
CC(=O)Nc1ncc2cc(-c3c(Cl)cccc3Cl)c(=O)n(C)c2n1	258 to 260
N#Cc1ccc(Cn2cncn2)cc1-c1ccc(OS(N)(=O)=O)c(Cl)c1	133 to 136
O=[N+]([O-])C=C1SCCN1Cc1ccccc1	136 to 138
COc1cc2c(cc1Cl)CCNC[C@H]2c1ccccc1	81 to 82
N#Cc1cn(-c2c(Cl)cc(C(F)(F)F)cc2Cl)nc1F	120 to 121
COc1cc(OC)nc(Oc2ccc(N)nc2C(=O)ON=C(C)C)n1	210 to 214
O[C@H](COc1cccc2[nH]ccc12)CN1CC=C(c2c[nH]c3cc(F)ccc23)CC1	95 to 100
Cc1nc(-c2ccccc2)n[nH]c1=O	75 to 76
NC(=O)c1ccnn1-c1ccc(Oc2ccccc2)cc1	142 to 144
CCC1C(=O)Nc2cc(N)c(N)cc21 (stereo unspecified)	> 300
NC1CCc2ccccc2N(CC(=O)O)C1=O (stereo unspecified)	147 to 150
CCCCCCCCCCOc1cnc(-c2ccc(CCCCCC(C)O)cc2)nc1 (stereo unspecified)	78 to 79
CCCn1nc(CO)cc1OCc1ccc2ccccc2n1	98 to 99
CCOc1nc(O)cc(CCl)n1	159 to 161
CC12CCC3C(CC=C4CC(O)CCC43C)C1=CCC2=O (stereo unspecified)	161 to 164

SMILES	melting point [°C]
CC(=O)c1cc(-c2ccncc2)[nH]c1C	236 to 237
Oc1ccc2c(c1)C=C(n1ccnc1)CC2	218 to 220
CCOC(=O)C1(Cc2ccc(OC)c(OC)c2)C(=O)NCC1c1ccc(OC)c(OC)c1 (stereo unspecified)	146 to 149
O=C(CCCCNCCOc1cccc2cccnc12)NC1CCCCC1	113 to 119
COc1ccc(C2CC(n3ccnc3)c3ccccc3N2)cc1 (stereo unspecified)	156 to 158
CC(=O)NC1(c2ccccc2)CCN(CCC(CN2C(=O)c3ccccc3C2=O)c2ccc(Cl)c(Cl)c2)CC1 (stereo unspecified)	83 to 85
O=C(Nc1cccc2[nH]ccc12)c1ccccc1OCCCNC1CCCCC1	148
CN(C)Cc1cccc(OCCCNc2nc(-c3ccccc3)n[nH]2)c1	126 to 128
C=CCN(CC=C)Cc1csc(-c2ncn3c2[C@@H]2CCCN2C(=O)c2c(Cl)cccc2-3)n1	186 to 187
COc1ccc2c(c1)OCC(NNc1ncnc3c1ncn3C1OC(CO)C(O)C1O)C2 (stereo unspecified)	205 to 207
CCc1ccccc1-c1cn(C)cc(-c2cccc(C(F)(F)F)c2)c1=O	123 to 125
O=C(c1cc2cc(O)ccc2[nH]1)C12CC3CC(CC(C3)C1)C2	197 to 199
NC[C@@H]1C[C@@H](CC(=O)O)C(=O)N1CCCc1ccccc1	188 to 192
C=CC1CCC2c3ccc(OCC)c(F)c3OC2C1 (stereo unspecified)	141
COc1ccc(N)c(CCc2ccccn2)c1	77.5 to 78.5
CN1C(=O)CN=C(c2ccccc2F)c2cc(NC(=O)NCCO)ccc21	156 to 160
O=C(Nc1nnn[nH]1)c1c(C(F)(F)F)nc2c(C(F)(F)F)cccc2c1O	> 260
CCn1cc(C(=O)O)c(=O)c2cc(F)c(S(=O)(=O)CC)nc21	249 to 252
Cn1cc(S(=O)(=O)Cl)c(=O)c2ccc(F)cc21	194 to 196
Clc1nc2ncsc2nc1Cl	124 to 125
O=C(O)c1ccsc1C(F)F	127 to 128
CCOC(=O)c1c(N)c(Cl)cc2c1OCO2	77 to 78
CNc1ccc(CN2C(=O)C(C)(c3ccccc3Cl)c3cc(Cl)ccc32)c(OC)c1 (stereo unspecified)	226
CCc1ccc(S(=O)(=O)N(c2ccc(Cl)cc2[N+](=O)[O-])C(C)C)cc1	117 to 118

SMILES	melting point [°C]
CN(CCc1ccccc1)C(=O)Cn1cc(C=O)c2c(OCc3ccccc3)cccc21	120 to 122
Cc1cc(C)c2c(c1C)OC1(CCN(C)CC1)C2c1ccc(C(C)C)cc1 (stereo unspecified)	63 to 64
N=C(NCc1ccccc1)NN=Cc1ccc(Cl)cc1Cl	139 to 141
CCOc1c(C)cnc(CO)c1C	58 to 59
C=CC(=O)NC(=O)NC(=O)CCl	144 to 145
Brc1cc(Br)c(-c2ccccc2)nn1	145 to 146
COc1ccc2c(c1)C(=O)Nc1ccccc1N2	216 to 218
COc1cccc(NS(=O)(=O)c2ccc(NC3=C(Cl)C(=O)c4ccccc4C3=O)cc2)c1	213 to 216
CC(C)n1cc(-c2ccc(C=O)cc2)c2c(Cl)ncnc21	138 to 140
COC(=O)c1ccc(OCCNC(=O)C2Cc3ccccc3N2S(=O)(=O)c2ccc(-c3ccc(F)cc3)cc2)c(C)c1 (stereo unspecified)	81 to 85
Cc1csc(N2N=C(c3ccc([N+](=O)[O-])cc3)c3cc4c(cc3CC2C)OCO4)n1 (stereo unspecified)	188 to 189
CC1C(C)(C)c2ccc(O)cc2C1(C)C (stereo unspecified)	149
CC1(c2ccc(O)c(Br)c2)C(=O)Nc2cc(Cl)cc(Cl)c2C1=O (stereo unspecified)	228 to 229
CC(=O)NC[C@H]1CN(c2ccc(N3CCC(F)(CCl)CC3)c(F)c2)C(=O)O1	158 to 160
CC(=O)NCCC(=O)NCCO	122 to 125
COc1ccc2c(c1)SC(C#N)C(=O)CO2 (stereo unspecified)	132 to 133
O=C(NCCN1CCCCC1)c1nc(NCC(c2ccccc2)c2ccccc2)c2nc[nH]c2n1	222
COc1nc(C)c(C)nc1N(C)C(=O)N1CCN(c2cc([N+](=O)[O-])cc([N+](=O)[O-])c2)CC1	133 to 135
O=C(O)CCCCc1cccc(-c2nc(=O)c3ccccc3s2)n1	162
O=C(O)CN1C(=O)C(O)N(Cc2cccc([N+](=O)[O-])c2)C1=O (stereo unspecified)	123 to 125
CN1C(=O)C2(COc3cc4c(cc32)OCCO4)c2c(OCc3ccccc3)cccc21 (stereo unspecified)	198 to 200
O=C1N=C(N2CCOCC2)SC1c1cncc(-c2cc3c(c(C45CC6CC(CC(C6)C4)C5)c2)OCO3)c1 (stereo unspecified)	255 to 258
